Reference: the SangsterLogP compilation

Row | Compound | logP
1 | Cc1cc(C)c(C)c(C)c1 | 4.17
2 | Nc1ccc(Cl)c(Cl)c1Cl | 3.33
3 | Oc1cc(Cl)cc(Cl)c1 | 3.26
4 | Cc1cc(C)cc(C)c1 | 3.84
5 | Nc1c(Cl)cccc1Cl | 2.71
6 | Oc1ccc(Cl)c(Cl)c1 | 3.05
7 | ClC1=C(Cl)C2(Cl)C3C4CC(C5OC45)C3C1(Cl)C2(Cl)Cl (configuration not stated) | 5.11
8 | Nc1cc(Cl)c(Cl)c(Cl)c1 | 3.32
9 | Nc1c(Cl)c(Cl)c(Cl)c(Cl)c1Cl | 4.59
10 | Cc1cc(C)c(C)c(C)c1C | 4.56
11 | Oc1cc(Cl)c(Cl)c(Cl)c1 | 3.75
12 | Cc1ccc(C)c(C)c1C | 4.11
